Tests used:
[1] = tested on: CYPRO; assay: In-water applied greenhouse weed control, transplanted paddy rice system; format: in vivo, Cyperus rotundus L.; settings: in-water application
Method: (§1) Weed seeds or nutlets of the desired test plant species were planted in puddled soil (mud) prepared by mixing a shredded, non-sterilized mineral soil (50.5 percent silt, 25.5 percent clay, and 24 percent sand, with a pH of about 7.6 and an organic matter content of about 2.9 percent) and water at a 1:1 volumetric ratio. The prepared mud was dispensed in 365 mL aliquots into 16-ounce (oz.) non-perforated plastic pots with a surface area of 86.59 square centimeters (cm^2) leaving a headspace of 3 centimeters (cm) in each pot. Mud was allowed to dry overnight prior to planting or transplanting. Rice seeds were planted in Sun Gro MetroMix® 306 planting mixture, which typically has a pH of 6.0 to 6.8 and an organic matter content of about 30 percent, in plastic plug trays. Seedlings at the second or third leaf stage of growth were transplanted into 840 mL of mud contained in 32-oz. non-perforated plastic pots with a surface area of 86.59 cm^2 4 days prior to herbicide application. The paddy was created by filling the headspace of the pots with 2.5 to 3 cm of water. When required to ensure good germination and healthy plants, a fungicide treatment and/or other chemical or physical treatment was applied. The plants were grown for 4-22 days in a greenhouse with an approximate 14 h photoperiod which was maintained at about 29° C. during the day and 26° C. during the night. Nutrients were added as Osmocote® (19:6:12, N:P:K+ minor nutrients) at 2 g per 16-oz. pot and 4 g per 32-oz. pot. Water was added on a regular basis to maintain the paddy flood, and supplemental lighting was provided with overhead metal halide 1000-Watt lamps as necessary. The plants were employed for testing when they reached the first through fourth true leaf stage.
(§2) Treatments consisted of the acid or esters of 4-amino-3-chloro-5-fluoro-6-(4-chloro-2-fluoro-3-methoxy-phenyl)pyridine-2-carboxylic acid (compound A) each formulated as an SC and various herbicidal components alone and in combination. Forms of compound A were applied on an acid equivalent basis.
(§3) Other herbicidal components were applied on an active ingredient basis and included daimuron formulated as an EC, bromobutide (technical grade material), and oxaziclomefone (technical grade material).
(§4) Treatment requirements for each compound or herbicidal component were calculated based upon the rates being tested, the concentration of active ingredient or acid equivalent in the formulation, an application volume of 2 mL per component per pot, and an application area of 86.59 cm^2 per pot.
(§5) For formulated compounds, a measured amount was placed in an individual 100 or 200 mL glass vial and was dissolved in a volume of 1.25% (v/v) Agri-Dex® crop oil concentrate to obtain application solutions.
(§6) For technical grade compounds, a weighed amount was placed in an individual 100 to 200 mL glass vial and was dissolved in a volume of acetone to obtain concentrated stock solutions. […] The concentrated stock solutions obtained were diluted with an equivalent volume of an aqueous mixture containing 2.5% (v/v) crop oil concentrate so that the final application solutions contained 1.25% (v/v) crop oil concentrate.
(§7) Applications were made by injecting, with a pipetter, appropriate amounts of the application solutions, individually and sequentially, into the aqueous layer of the paddy. Control plants were treated in the same manner with the solvent blank. Applications were made so that all treated plant material received the same concentrations of acetone and crop oil concentrate.
(§8) The treated plants and control plants were placed in a greenhouse as described above and water was added as needed to maintain a paddy flood. After approximately 3 weeks the condition of the test plants as compared with that of the untreated plants was determined visually and scored on a scale of 0 to 100 percent where 0 corresponds to no injury or growth inhibition and 100 corresponds to complete kill. […]

[2] = tested on: FIMMI; assay: as above; format: in vivo, Fimbristylis miliacea (L.) Vahl; settings: in-water application
Method: as §1, §2, §3, §4, §5, §6, §7, §8

[3] = tested on: ECHCO; assay: Postemergence foliar-applied greenhouse weed control, direct-seeded rice system; format: in vivo, Echinochloa colona (L.) Link
Excerpt: (§9) Seeds or nutlets of the desired test plant species were planted in a soil matrix prepared by mixing a loam or sandy loam soil (e.g., 28.6 percent silt, 18.8 percent clay, and 52.6 percent sand, with a pH of about 5.8 and an organic matter content of about 1.8 percent) and calcareous grit in an 80 to 20 ratio. The soil matrix was contained in plastic pots with a volume of 1 quart and a surface area of 83.6 square centimeters (cm^2). When required to ensure good germination and healthy plants, a fungicide treatment and/or other chemical or physical treatment was applied. The plants were grown for 8-22 days in a greenhouse with an approximate 14 h photoperiod which was maintained at about 29° C. during the day and 26° C. during the night. Nutrients (Peters Excel® 15-5-15 5-Ca 2-Mg and iron chelate) were applied in the irrigation solution as needed and water was added on a regular basis. Supplemental lighting was provided with overhead metal halide 1000-Watt lamps as necessary. The plants were employed for testing when they reached the first through fourth true leaf stage.
(§10) Treatments consisted of the acid or esters of 4-amino-3-chloro-5-fluoro-6-(4-chloro-2-fluoro-3-methoxy-phenyl)pyridine-2-carboxylic acid (Compound A), each formulated as an SC (suspension concentrate), and various herbicidal components alone and in combination. Forms of compound A were applied on an acid equivalent basis.
(§11) Other herbicidal components were applied on an active ingredient basis and included diamuron formulated as an EC (emulsifiable concentrate) and oxaziclomefone (technical grade material).
(§12) Treatment requirements were calculated based upon the rates being tested, the concentration of active ingredient or acid equivalent in the formulation, and a 12 mL application volume at a rate of 187 L/ha.
(§13) For treatments comprised of formulated compounds, measured amounts of compounds were placed individually in 25 mL glass vials and diluted in a volume of 1.25% (v/v) Agri-Dex® crop oil concentrated to obtain 12× stock solutions. […] Application solutions were prepared by adding an appropriate amount of each stock solution (e.g., 1 mL) and diluted to the appropriate final concentrations with the addition of 10 mL of an aqueous mixture of 1.25% (v/v) crop oil concentrate so that the final spray solutions contained 1.25+/−0.05% (v/v) crop oil concentrate.
(§14) For treatments comprised of technical compounds, weighed amounts can be placed individually in 25 mL glass vials and dissolved in a volume of 97:3 v/v acetone/DMSO to obtain 12× stock solutions. […] Application solutions can be prepared by adding an appropriate amount of each stock solution (e.g., 1 mL) and diluted to the appropriate final concentrations with the addition of 10 mL of an aqueous mixture of 1.5% (v/v) crop oil concentrate so that the final spray solutions contain 1.25% (v/v) crop oil concentrate. When technical materials are used, the concentrated stock solutions can be added to the spray solutions so that the final acetone and DMSO concentrations of the application solutions are 16.2% and 0.5%, respectively.
(§15) For treatments comprised of formulated and technical compounds, weighed amounts of the technical materials were placed individually in 25 mL glass vials and dissolved in a volume of 97:3 v/v acetone/DMSO to obtain 12× stock solutions, and measured amounts of the formulated compounds were placed individually in 25 mL glass vials and diluted in a volume of 1.5% (v/v) crop oil concentrate or water to obtain 12× stock solutions. […] Application solutions were prepared by adding an appropriate amount of each stock solution (e.g., 1 mL) and diluted to the appropriate final concentrations with the addition of an appropriate amount of an aqueous mixture of 1.5% (v/v) crop oil concentrate so that the final spray solutions contained 1.25% (v/v) crop oil concentrate. […]

[4] = tested on: IPOHE; assay: as above; format: in vivo, Ipomoea hederacea Jacq.
Excerpt: as §9, §10, §11, §12, §13, §14, §15

[5] = tested on: ECHOR; assay: In-water applied greenhouse weed control, transplanted paddy rice system; format: in vivo, Echinochloa oryzoides (Ard.) Fritsch; settings: in-water application
Method: as §1, §2, §3, §4, §5, §6, §7, §8

[6] = tested on: ECHCG; assay: Postemergence foliar-applied greenhouse weed control, direct-seeded rice system; format: in vivo, Echinochloa crusgalli (L.) Beauv.
Excerpt: as §9, §10, §11, §12, §13, §14, §15

[7] = tested on: BRAPP; assay: as above; format: in vivo; settings: Compound A Acid 4.38 gae/ha alone
Excerpt: as §9, §10, §11, §12, §13, §14, §15

[8] = tested on: LEFCH; assay: as above; format: in vivo, Leptochloa chinensis (L.) Nees
Excerpt: as §9, §10, §11, §12, §13, §14, §15

[9] = Compound A Acid 4.38 gae/ha alone
[10] = Compound A Acid 8.75 gae/ha alone
[11] = Compound A Acid 17.5 gae/ha alone
[12] = Compound A Acid 35 gae/ha alone

SMILES | Visual Weed Control (%) - 19 DAA CYPRO Obs ([1]; Bromobutide 225 gai/ha alone) [%] | Visual Weed Control (%) - 19 DAA CYPRO Obs ([1]; Bromobutide 450 gai/ha alone) [%] | Visual Weed Control (%) - 19 DAA FIMMI Obs ([2]; Bromobutide 225 gai/ha alone) [%] | Visual Weed Control (%) - 19 DAA FIMMI Obs ([2]; Bromobutide 450 gai/ha alone) [%] | Visual Weed Control (%) - 20 DAA ECHCO Obs [3, 9] [%] | Visual Weed Control (%) - 20 DAA ECHCO Obs [3, 10] [%] | Visual Weed Control (%) - 20 DAA ECHCO Obs [3, 11] [%] | Visual Weed Control (%) - 20 DAA IPOHE Obs [4, 9] [%] | Visual Weed Control (%) - 20 DAA IPOHE Obs [4, 10] [%] | Visual Weed Control (%) - 20 DAA ECHOR Obs [5, 10] [%] | Visual Weed Control (%) - 20 DAA ECHOR Obs [5, 11] [%] | Visual Weed Control (%) - 20 DAA ECHOR Obs [5, 12] [%] | Visual Weed Control (%) - 21 DAA CYPRO Obs [1, 11] [%] | Visual Weed Control (%) - 21 DAA CYPRO Obs [1, 12] [%] | Visual Weed Control (%) - 20 DAA ECHCG Obs [6, 9] [%] | Visual Weed Control (%) - 20 DAA ECHCG Obs [6, 10] [%] | Visual Weed Control (%) - 20 DAA BRAPP Obs [7] [%] | Visual Weed Control (%) - 20 DAA LEFCH Obs [8, 9] [%] | Visual Weed Control (%) - 20 DAA LEFCH Obs [8, 10] [%] | Visual Weed Control (%) - 20 DAA LEFCH Obs [8, 11] [%]
CC(C)(NC(=O)C(Br)C(C)(C)C)c1ccccc1 (centres unmarked) [Bromobutide, 2-bromo-3,3-dimethyl-N-(1-methyl-1-phenylethyl)butanamide] | 0 | 0 | 0 | 15 |  |  |  |  |  |  |  |  |  |  |  |  |  |  |  | 
COc1c(Cl)ccc(-c2nc(C(=O)O)c(Cl)c(N)c2F)c1F [Compound A Acid, 4-amino-3-chloro-6-(4-chloro-2-fluoro-3-methoxyphenyl)-5-fluoropyridine-2-carboxylic acid] |  |  |  |  | 50 | 75 | 90 | 10 | 35 | 20 | 30 | 40 | 40 | 70 | 25 | 80 | 10 | 0 | 20 | 50

— patent US8889591B2, “Herbicidal compositions comprising 4-amino-3-chloro-5-fluoro-6-(4-chloro-2-fluoro-3-methoxyphenyl)pyridine-2-carboxylic acid or a derivative thereof and bromobutide, daimuron, oxaziclomefone or pyributicarb” (Dow Agrosciences LLC, priority 2012, dated 2014)
